Results published in ChEMBL document CHEMBL5338706, “Discovery of a potent and selective proteolysis targeting chimera (PROTAC) degrader of NSD3 histone methyltransferase” (Eur J Med Chem, 2022).
Active and inactive are the calls of the source. The rule behind the calls is not given here.

Experiments:
[1] = target: T1, Histone-lysine N-methyltransferase NSD2 (Homo sapiens) (UniProt O96028); assay: Induction of NSD2 degradation in human A549 cells at 5 to 10 uM incubated for 72 hrs by Western blot analysis; assay type: cell-based; conditions: dose 5-10 µM
T1 sequence (whole entry): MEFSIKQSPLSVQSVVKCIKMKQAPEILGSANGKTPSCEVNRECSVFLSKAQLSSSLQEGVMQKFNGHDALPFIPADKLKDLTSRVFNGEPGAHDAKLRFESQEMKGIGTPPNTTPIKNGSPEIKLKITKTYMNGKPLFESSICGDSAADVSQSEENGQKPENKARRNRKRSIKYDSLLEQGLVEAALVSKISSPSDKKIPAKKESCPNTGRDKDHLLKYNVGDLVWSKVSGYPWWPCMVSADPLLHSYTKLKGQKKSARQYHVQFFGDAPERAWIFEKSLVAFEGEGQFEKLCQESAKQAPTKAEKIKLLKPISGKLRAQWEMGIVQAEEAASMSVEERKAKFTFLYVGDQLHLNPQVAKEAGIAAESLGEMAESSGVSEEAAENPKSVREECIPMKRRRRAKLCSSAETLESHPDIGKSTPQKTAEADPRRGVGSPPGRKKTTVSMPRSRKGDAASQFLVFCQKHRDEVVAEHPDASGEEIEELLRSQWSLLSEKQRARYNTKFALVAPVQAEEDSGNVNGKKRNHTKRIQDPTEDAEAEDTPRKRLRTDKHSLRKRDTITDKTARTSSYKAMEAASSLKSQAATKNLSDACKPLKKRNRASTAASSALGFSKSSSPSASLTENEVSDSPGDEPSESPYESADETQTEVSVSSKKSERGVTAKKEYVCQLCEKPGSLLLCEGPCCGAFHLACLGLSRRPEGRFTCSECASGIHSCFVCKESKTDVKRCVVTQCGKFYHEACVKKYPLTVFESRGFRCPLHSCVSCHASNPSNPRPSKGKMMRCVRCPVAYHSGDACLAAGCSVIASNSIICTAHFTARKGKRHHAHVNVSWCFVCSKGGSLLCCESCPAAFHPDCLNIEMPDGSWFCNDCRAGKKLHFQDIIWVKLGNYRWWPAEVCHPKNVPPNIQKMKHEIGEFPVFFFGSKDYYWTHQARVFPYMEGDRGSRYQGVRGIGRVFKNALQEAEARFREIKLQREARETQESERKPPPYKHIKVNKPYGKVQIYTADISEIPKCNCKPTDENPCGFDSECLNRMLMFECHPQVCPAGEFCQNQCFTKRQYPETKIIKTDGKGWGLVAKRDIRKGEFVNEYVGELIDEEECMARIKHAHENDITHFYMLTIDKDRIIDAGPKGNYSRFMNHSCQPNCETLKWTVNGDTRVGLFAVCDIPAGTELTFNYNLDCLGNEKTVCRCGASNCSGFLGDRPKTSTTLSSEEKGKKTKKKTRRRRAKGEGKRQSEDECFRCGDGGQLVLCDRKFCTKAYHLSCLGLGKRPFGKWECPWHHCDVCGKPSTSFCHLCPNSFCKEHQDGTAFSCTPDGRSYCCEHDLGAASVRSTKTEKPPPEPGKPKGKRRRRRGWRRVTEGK

NCI-H1703 [2] = assay: Downregulation of CDC25A in human NCI-H1703 cells measured after 72 hrs by RT-qPCR method; assay type: functional, cell-based; conditions: dose 3-7.5 µM
NCI-H1703 [3] = assay: Induction of apoptosis in human NCI-H1703 cells assessed as late apoptotic cells at 10 uM measured after 72 hrs by PI/Annexin-V staining based flow cytometry analysis (reference value: 3.00% ); assay type: functional
[4] = Downregulation of NSD3 level in human NCI-H1703 cells at 3 uM by measuring fold change by Western blot analysis relative to control; assay type: functional
[5] = Downregulation of CDC25A level in human NCI-H520 cells at 5 uM by measuring fold change by Western blot analysis relative to control; assay type: functional
[6] = Downregulation of Cyclin D1 level in human NCI-H520 cells at […] by measuring fold change by Western blot analysis relative to control; assay type: functional; conditions: dose 7.5 µM

With `Cc1cc(CNCCCCCCCCCCC(=O)N[C@H](C(=O)N2C[C@H](O)C[C@H]2C(=O)N[C@@H](C)c2ccc(-c3scnc3C)cc2)C(C)(C)C)cc(C)c1-c1ncn(C)c1-c1ccnc2cc(F)ccc12` the Activity [1] was “inactive”, the Activity (NCI-H1703 [2]) was “Dose-Dependent Effect” and the Activity (NCI-H1703 [3]) was 62.9%. For the same compound, the “fold change (FC)” value [4] was 0.97, the “fold change (FC)” value [5] was 0.93 and the “fold change (FC)” value [6] was 0.62.
